Assays:
[1] = tested on: neutral endopeptidase; experiment: Urinary atrial natriuretic peptide excretion rate in subjects with isolated systolic hypertension; format: in vivo, human; conditions: once daily 80 mg, at 24 hours after dosing
[2] = tested on: subjects with isolated systolic hypertension; experiment: Omapatrilat in subjects with isolated systolic hypertension: trough seated blood pressure, forced- and elective-dose titration versus placebo; format: in vivo, human; conditions: for Δtrough seated diastolic blood pressure / Δtrough seated systolic blood pressure: week 9, change from baseline, trough 24±3 hours post dose; for percentage of normalized subjects (trough seated systolic blood pressure less than 140 mm Hg): week 9
Experimental: Omapatrilat was studied in subjects with isolated systolic hypertension (seated systolic blood pressure 160-199 mm Hg and diastolic blood pressure less than 90 after 4 weeks of single-blind placebo lead-in). Both a forced-dose titration (at Week 1) and an elective-dose titration (at Week 9) design were used to compare the change from baseline, relative to placebo, in trough (24±3 hours post dose) seated systolic blood pressure after 9 weeks and 13 weeks of once-daily oral administration of 3 dose regimens of omapatrilat. Treatment regimens consisted of omapatrilat 10 mg lead-in maintained at 10 mg at week 1, electively titrated to 20 mg at week 9 for subjects with a seated systolic blood pressure greater than or equal to 140 mm Hg, or omapatrilat 20 mg lead-in maintained at 20 mg at week 1, electively titrated to 40 mg at week 9 for subjects with a seated systolic blood pressure greater than or equal to 140 mm Hg, or omapatrilat 20 mg lead-in increased to 40 mg at week 1, electively titrated to 80 mg at week 9 for subjects with a seated systolic blood pressure greater than or equal to 140 mm Hg. Placebo was mock titrated at weeks 1 and week 9.
429 subjects were randomized. The mean age was 67 years, and mean baseline blood pressure was 169/82 mm Hg. The primary efficacy objective was to compare the change from baseline, relative to placebo, in trough (24±3 hours post dose) seated systolic blood pressure after 9 weeks of once-daily oral administration of 3 dose regimens of omapatrilat.

[3] = omapatrilat 10/10 mg once-daily oral
[4] = omapatrilat 20/20 mg once-daily oral
[5] = omapatrilat 20/40 mg once-daily oral

For O=C(N[C@H]1CCSC2CCC[C@@H](C(=O)O)N2C1=O)C(S)Cc1ccccc1 (relative stereo) [Omapatrilat, [4S-[4α(R*), 7α, 10aβ]]-octahydro-4-[(2-mercapto-1-oxo-3-phenylpropyl)amino]-5-oxo-7H-pyrido[2,1-b][1,3]thiazepine-7-carboxylic acid], the “urinary atrial natriuretic peptide excretion rate” value [1] was “persistent elevation”, the “systolic and diastolic blood pressure reductions at trough versus placebo regimen” value ([2]; 10/10/20 mg, 20/20/40 mg and 20/40/80 mg once-daily for 13 weeks, predominately elderly subjects) was “greater systolic blood pressure and diastolic blood pressure reductions at trough than a regimen of placebo” and the “systolic blood pressure reductions versus placebo” value ([2]; Week 13, after elective titration) was “Additional small reductions in systolic blood pressure versus placebo”. The “Δtrough seated diastolic blood pressure” value [2, 3] was −1.8, the “Δtrough seated systolic blood pressure” value [2, 3] was −15.9 and the “percentage of normalized subjects (trough seated systolic blood pressure less than 140 mm Hg)” value (from here on “percentage of normalized subjects”) ([2]; omapatrilat 10/10 mg) was 28%. The “Δtrough seated diastolic blood pressure” value [2, 4] was −2.6, the “Δtrough seated systolic blood pressure” value [2, 4] was −23.1 and the “percentage of normalized subjects” value ([2]; omapatrilat 20/20 mg) was 51%. For the same compound, the “Δtrough seated diastolic blood pressure” value [2, 5] was −4.6, the “Δtrough seated systolic blood pressure” value [2, 5] was −26.1 and the “percentage of normalized subjects” value ([2]; omapatrilat 20/40 mg) was 47%. The “systolic and diastolic blood pressure reductions versus placebo regimen” value ([2]; week 9, all 3 omapatrilat regimens) was “greater systolic and diastolic blood pressure reductions than the placebo regimen”.

Source: patent US20020004500A1, “Vasopeptidase Inhibitors to treat isolated systolic hypertension” (priority 2000, published 2002)
